This passage reports Kd results from paper PMC2710136 (Biochemistry, 2009).

Common to all, as to details: SD
One assay has as its target nSH3 domain of Grb2 (Homo sapiens, UniProt P62993). The assay is described as follows: ITC binding of Sos1 peptides to wildtype nSH3 domain of Grb2.
Another assay has as its target cSH3 domain of Grb2 (Homo sapiens, UniProt P62993). The assay is described as follows: ITC binding of Sos1 peptides to wildtype cSH3 domain of Grb2.
In assay [1] the target is nSH3_D33A mutant domain of Grb2 (Homo sapiens, UniProt P62993, D33A). The assay is described as follows: ITC binding of Sos1 peptides to nSH3_D33A mutant domain.
Sequence of nSH3_D33A mutant domain of Grb2 (P62993 1-58 D33A limits assumed): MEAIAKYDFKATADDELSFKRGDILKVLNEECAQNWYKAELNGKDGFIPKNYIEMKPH
In assay [2] the target is nSH3_E31A mutant domain of Grb2 (Homo sapiens, UniProt P62993, E31A). The assay is described as follows: ITC binding of Sos1 peptides to nSH3_E31A mutant domain.
Sequence of nSH3_E31A mutant domain of Grb2 (P62993 1-58 E31A limits assumed): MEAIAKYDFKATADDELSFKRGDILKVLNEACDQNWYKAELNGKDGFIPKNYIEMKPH
In assay [3] the target is cSH3_D187A mutant domain of Grb2 (Homo sapiens, UniProt P62993, D187A). The assay is described as follows: ITC binding of Sos1 peptides to cSH3_D187A mutant domain.
Sequence of cSH3_D187A mutant domain of Grb2 (P62993 156-215 D187A limits assumed): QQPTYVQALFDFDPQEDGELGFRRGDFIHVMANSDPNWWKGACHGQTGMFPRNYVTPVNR
In assay [4] the target is cSH3_D190A mutant domain of Grb2 (Homo sapiens, UniProt P62993, D190A). The assay is described as follows: ITC binding of Sos1 peptides to cSH3_D190A mutant domain.
Sequence of cSH3_D190A mutant domain of Grb2 (P62993 156-215 D190A limits assumed): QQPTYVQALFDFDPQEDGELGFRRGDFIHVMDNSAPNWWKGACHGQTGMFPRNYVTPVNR

Ends that are not written are not given here.

Sequence of cSH3 domain of Grb2 (P62993 156-215 limits assumed): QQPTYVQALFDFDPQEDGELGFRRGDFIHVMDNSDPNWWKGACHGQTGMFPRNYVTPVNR
Sequence of nSH3 domain of Grb2 (P62993 1-58 limits assumed): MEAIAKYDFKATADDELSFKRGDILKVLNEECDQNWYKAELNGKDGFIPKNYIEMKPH

What is called Kd is the concentration at which binding is half-saturated. For DSPPAIPPRQPT [Peptide S2], the dissociation constant Kd at nSH3 domain of Grb2 was 56 ± 5 µM; on cSH3 domain of Grb2, 1400 ± 87 µM.
For ESPPLLPPREPV [Peptide S3], in that order: 117 ± 2 µM and 1720 ± 33 µM.
IAGPPVPPRQST [Peptide S4]: the Kd was 82 ± 1 µM on nSH3 domain of Grb2 and 1320 ± 44 µM on cSH3 domain of Grb2.
In the case of PVPPPVPPAAAP [Peptide S1_AAA], the Kd stood at 2560 ± 335 µM at nSH3 domain of Grb2 and 3090 ± 121 µM on cSH3 domain of Grb2.
Take PVPPPVPPARRP [S1_R+5A]: the dissociation constant Kd came out at 490 ± 20 µM at nSH3 domain of Grb2 and 962 ± 26 µM on cSH3 domain of Grb2.
As to PVPPPVPPRAAP [Peptide S1_AA], the equilibrium dissociation constant (Kd) came out at 84 ± 1 µM at nSH3 domain of Grb2 and 1570 ± 27 µM on cSH3 domain of Grb2.
PVPPPVPPRARP [S1_R+6A]: the dissociation constant (Kd) in assay [1] came out at 137 ± 7.6 µM; in assay [2], 67 ± 0.3 µM; at nSH3 domain of Grb2 it was 53 ± 1 µM; in assay [3], 544 ± 102 µM; in assay [4], 910 ± 57 µM; at cSH3 domain of Grb2 it was 331 ± 2 µM.
In the case of PVPPPVPPRRAP [S1_R+7A], the Kd in assay [1] is 169 ± 4.5 µM; in assay [2], 91 ± 1.2 µM; on nSH3 domain of Grb2 it was 72 ± 1 µM; in assay [3] it was 2390 ± 73 µM; in assay [4] it was 482 ± 47 µM; at cSH3 domain of Grb2, 318 ± 23 µM.
